Reference: US20210380929A1, “METHODS, APPARATUS AND KITS FOR BACTERIAL CELL LYSIS” (TECHNISCHE UNIVERSITÄT WIEN, priority 2018, published 2021)

Test system: Enterococcus faecalis type strain NCTC 775
Assay type: cell-based

CC(=O)O.CCn1cc[n+](C)c1 [[C2mim]OAc, 1-Ethyl-3-methylimidazolium acetate]
23S rRNA gene copies in 2.5 μl of the DNA extracts: ~6.48±0.02 | cell lysis efficiency with varying IL concentration: almost steadily decreased with its respective concentration

CCCCCC(=O)[O-].C[N+](C)(C)CCO [[Cho]Hex, Choline hexanoate]
23S rRNA gene copies in 2.5 μl of the DNA extracts: ~6.49±0.11 | cell lysis efficiency with varying IL concentration: slightly improved towards a concentration of 50% (w/v), only decreasing with lower concentrations of 30% (w/v) and 10% (w/v)
